Measured values published in ChEMBL document CHEMBL3638916, “Substituted 3-arylsulfonyl-pyrazolo[1,5-A]pyrimidines, serotonin 5-HT6 receptor antagonists and methods for the production and use thereof” (2013).

How the values were obtained:
[1] = target: T1, 5-hydroxytryptamine receptor 6 (Homo sapiens, UniProt P50406); test: Mol. Pharmacol. 43:320-327, 1993].
[2] = target: T1, 5-hydroxytryptamine receptor 6; test: Functional Assay: Determination of antagonistic activity of compounds of the general formula 1 towards 5-HT6 receptors. Compounds of the general formula 1 were tested for their ability to prevent 5-HT6 receptors activation by serotonin. HEK 293 cells (cells of human embryo's kidney) with artificially expressed 5-HT6 receptor, activation of which by serotonin leads to increasing the concentration of intracellular cAMP, were used. The level of intracellular cAMP was determined using reagent kit LANCE cAMP (PerkinElmer) according to the method described by the manufacturer of the kit [http://las.perkinelmer.com/content/Manuals/MAN_LANCEcAMP384KitUser.pdf]. Effectiveness of the compounds was estimated by their ability to reduce the level of intracellular cAMP induced by serotonin. Table 4 presents IC50 values for the compounds of general formula 1 in the setting of functional assay for serotonin 5-HT6 receptor inhibition. The data given testify their moderate or high antagonistic activity.; assay type: cell-based

T1 sequence (P50406 whole entry): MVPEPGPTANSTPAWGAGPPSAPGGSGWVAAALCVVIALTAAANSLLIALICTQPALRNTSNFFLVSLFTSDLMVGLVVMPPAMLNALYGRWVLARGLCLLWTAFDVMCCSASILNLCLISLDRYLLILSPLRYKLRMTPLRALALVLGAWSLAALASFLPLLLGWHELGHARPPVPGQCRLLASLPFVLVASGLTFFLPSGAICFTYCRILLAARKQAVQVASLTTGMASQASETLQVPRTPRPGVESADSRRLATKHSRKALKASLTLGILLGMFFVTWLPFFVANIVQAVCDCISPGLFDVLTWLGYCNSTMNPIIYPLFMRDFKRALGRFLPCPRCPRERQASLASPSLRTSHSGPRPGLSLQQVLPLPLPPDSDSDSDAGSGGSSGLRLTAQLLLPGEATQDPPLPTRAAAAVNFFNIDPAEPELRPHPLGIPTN

IC50 [1]: 0.05 µM
IC50 [2]: 8.4 µM
SMILES: CSc1nn2c(C)c(Br)c(C)nc2c1S(=O)(=O)c1ccccc1
